row,melting point [°C],SMILES
1,169 to 170,CC(C)[C@H](NC(=O)OCc1csc(N2CCOCC2)n1)C(=O)N[C@@H](Cc1ccccc1)C[C@H](O)[C@H](Cc1ccccc1)NC(=O)OCc1cncs1
2,154,NCc1ccc2c(c1)nc(CN1C(=O)N(C3CC3)Cc3ccccc31)n2CCCC(F)(F)F
3,222 to 224,CCCC(=O)Nc1cccc(C(c2c(O)c3c(oc2=O)CCCCCC3)C2CC2)c1 (stereo not given)
4,203 to 204,COc1cccc2cc(C(=O)Oc3ccc(Cl)cn3)c(=O)oc12
5,237 to 238,COc1cc(OC)c2c(=O)[nH]c(-c3ccc4[nH]c(CCO)cc4c3)nc2c1
6,163 to 164,CC(C)(C)c1cc(OCC(N)=S)cc(C(C)(C)C)c1O
7,141 to 142,Fc1ccc(-c2cc(-c3ccccc3)c3cc(Cl)ccc3n2)cc1
8,189 to 191,O=C(NC1CCN(CCc2ccc3ccccc3c2)CC1)c1ccccc1
9,205 to 206,CCCCOC(=O)C=C(C)C=CC=C(C)C=Cc1c(C)cc(C)c([N+](=O)[O-])c1C
10,175 to 176,CCOCN1C(C)=C(C(=O)O)C(c2cccc([N+](=O)[O-])c2)C(C(=O)O)=C1C
11,133,CCc1cc2c(o1)S(=O)(=O)NC2=O
12,277,COC(=O)CCCCC(=O)Nc1ccc(C(=O)NN=C2C(=O)Nc3ccc(I)cc32)cc1
13,170,CC(=O)NC1CCc2[nH]c3ccccc3c2C1 (stereo not given)
14,197 to 198,Cc1cc(C)cc(C(=O)c2c(C(C)C)c(=O)[nH]c(=O)n2Cc2ccnc(Cl)n2)c1
15,171 to 173,CC(=O)c1ccc(S(=O)(=O)Nc2cccnc2Nc2ccccc2)cc1
16,119 to 120,CCOP(=O)(CC(=O)Nc1c(C(C)C)cccc1C(C)C)OCC
17,162,CC(C)(C)c1cc(=S)cc(C(C)(C)C)s1
18,121 to 123,C=CCOc1ccc2c(=O)c(C)c(-c3ccccc3)oc2c1C(=O)C=Cc1cc(OC)c(OC)c(OC)c1
19,205 to 207,CC(O)(c1nc2ccc(I)cc2c(=O)[nH]1)C(F)(F)F (stereo not given)
20,99 to 101,COC(=O)c1ccc(OC2CCOC2=O)c([N+](=O)[O-])c1 (stereo not given)
21,167 to 168,Cc1ccc(N(c2ccccc2)c2ccc(-c3ccc(-c4ccc(N(c5ccccc5)c5ccc(C)cc5)cc4)cc3)cc2)cc1
22,108 to 110,CCOC(=O)N(O)Cc1cccc(Nc2ccccc2C(=O)OC)c1Cl
23,192 to 194,NS(=O)(=O)c1ccc(NC(=O)CNc2ccccc2)cc1Cl
24,89 to 96,OCC1OC(n2cnc3c(NC(c4ccccc4)c4ccccc4)ncnc32)C(O)C1O (stereo not given)
25,110 to 112,Cc1nc(-c2ccc(OCCCn3ccnc3)cc2)no1
26,142 to 144,Cc1ccc(N)cc1C(=O)O
27,180 to 182,O=C1CNC(c2cc(-c3ccsc3)cc(-c3ccsc3)c2)=NN1CC(F)(F)F

row,melting point [°C],SMILES
1,280 to 282,CC(C)c1cccc(C(C)C)c1NC(=O)CN1C(=O)N(c2ccc(C#N)cc2)C2(CCCCC2)C1=O
2,85,CCCCCCNC(=O)Oc1ccc2c(c1)N(Cc1ccccc1)CCC2
3,99 to 102,CCCCCCCCNC(=O)/C=C\SC(=O)c1cc(Cl)cc(Cl)c1
4,43 to 45,CC1(CC(=O)O)CCCCCC1=O (stereo not given)
5,182,Cc1nc2sccn2c(=O)c1CCN1CCC(=C2c3ccccc3CCn3ccnc32)CC1
6,55.5 to 56,C=C(C)COc1c(C)c(CCC=O)c2c(c1C)CC(C)(C)O2
7,98 to 100,CC1CCC(C(C)C)C(OC(=O)C(=O)Nc2nc(-c3ccccc3)cs2)C1 (stereo not given)
8,210 to 212,CCC(C)CNc1cccc(-c2ccnc3c(C(=O)c4cccs4)cnn23)c1 (stereo not given)
9,157 to 160,COc1ccc2c(=O)c(-c3ccc(C)cc3)c(SCc3ccncc3)oc2c1
10,60.2 to 64.1,COc1ccc(CN2CCC(=C3c4ccc(Cl)cc4CCc4cccnc43)CC2)cn1
11,158 to 160,CC(C)[C@H](NC(=O)OCc1ccccc1)C(=O)NC(Cc1ccccc1)C(O)C(N)Cc1ccccc1 (stereo not given in full)
12,63 to 70,CC(=O)SCC(Cc1ccccc1C)C(=O)O (stereo not given)
13,151 to 152,COC(=O)C1=C(C)NC(C)=C(C(=O)OCCCCCCCC#N)C1c1cccc([N+](=O)[O-])c1 (stereo not given)
14,93 to 95,COc1cc(C(C)=O)ccc1OCCCN1CCC(c2nsc3ccccc23)CC1
15,175 to 177,O=C1CC=C(c2c[nH]c3cc([N+](=O)[O-])ccc23)CC1
16,130 to 134,Cc1cc(C)cc(-n2ncc(-c3ccc(S(C)(=O)=O)cc3)c(-c3ccc(F)cc3)c2=O)c1
17,120,O=c1oc2ccccc2nc1-c1cc(O)c(O)c([N+](=O)[O-])c1
18,128 to 129,FC(F)Oc1cc(Oc2ccnc(-c3cnccn3)n2)ccn1
19,141 to 142,N[C@@H](Cc1ccccc1)C(O)(c1ccccc1)c1ccccc1
20,149 to 150,OCCOc1ccc(-c2nc(-c3ccc(Cl)cc3)nc(-c3ccc(OCCO)cc3O)n2)c(O)c1
21,128 to 130,Cc1nc2c(s1)CN=C(c1ccccc1)c1cc(Cl)ccc1-2
22,210 to 211,Nc1ccc(Nc2ncnc3cc(-c4ccccc4)sc23)cc1
23,242 to 243,O=C(O)/C=C/c1ccc(Oc2c(-c3ccccc3)c(C3CC3)cc3cc(O)ccc23)cc1
24,83 to 85,CSCC(O)C1(Sc2ccccc2)C(=O)N2C1CCOC2(C)C (stereo not given)
25,91.1,CCCn1nnn(-c2ccc([N+](=O)[O-])cc2)c1=O
26,89 to 90,Cc1oc(-c2ccccc2)nc1CCc1nc(CCl)cs1

# More lines, now with the values behind:
row,SMILES,melting point [°C]
1,CCN1C(=O)C(C)(C)N=C(c2ccccc2Cl)c2cc([N+](=O)[O-])ccc21,178
2,CCCCc1nc(Cl)c(C=O)n1Cc1ccc(-c2nc3ccccn3c2C(=O)O)cc1,120 to 123
3,COc1ccc(C(=O)c2cccc([N+](=O)[O-])c2)cc1OC,133 to 135
4,O=C(CCCl)c1ccc2c(c1)Cc1cc(C(=O)CCCl)ccc1S2,105 to 107
5,Cc1oc(-c2ccc(C(F)(F)F)cc2)nc1-c1cccc(-c2ccc(OCC(=O)O)cc2)c1,178 to 179
6,O=C(Nc1cccc(CO)c1)NC1N=C(c2ccccc2F)c2ccccc2N(CC(=O)N2CC3CCC(CC3)C2)C1=O (racemic),143 to 161
7,Cc1ccccc1CNc1cc(Br)cc2c1nc(C)n2C,128 to 129
8,Clc1cc2nc(Cl)n(Cc3ccccc3)c2cc1Cl,175 to 176
9,CCOc1ccc(NC(=O)c2cn(CC)c3c2C(=O)CCC3)cc1,209 to 210
10,O=C1NC(=O)C(c2c[nH]c3ccccc23)=C1c1c[nH]c2ccccc12,234
11,CCCCCCCCCCCCCCCCc1nc(N(C)C)nc(OC)c1Br,66 to 67
12,COC(=O)C(=C1SCCCN1C(=O)OC)[N+](=O)[O-],71 to 72
13,COCCNC(=O)c1cnc(C(=O)O)c(OC)c1,160 to 161
14,COc1cc2ncc(C(=O)O)c(Nc3cccc(Br)c3)c2cc1OC,282 to 285
15,CCCCCCC(=O)c1ccc(OCCN2CCN(c3cc(Cl)nnc3Cl)CC2)cc1,113 to 115
16,CC(C)c1ccc(OCC(=O)N2C(=O)OC[C@H]2Cc2ccccc2)cc1,104 to 105
17,COc1ccccc1N1CCN(CCCNC(=O)c2cccc3c(=O)c(C)c(-c4cccnc4)oc23)CC1,134 to 137
18,CC(Cc1ccc(OCc2cccc(C(=O)O)c2)cc1)NCCC(c1ccccc1)c1ccccc1 (stereo not given),209 to 212
19,CN(C(CCn1c(=O)[nH]c2ccsc2c1=O)C(=O)NO)S(=O)(=O)c1ccc(Oc2cccc(Cl)c2)cc1 (stereo not given),192 to 194
20,O=C(O)CN1C(=O)c2cccc3c(Sc4ccccc4)ccc(c23)C1=O,250 to 253
21,COc1ccc(N2C(=O)[C@H](O)[C@H]2c2ccco2)cc1,149 to 152

row,SMILES,melting point [°C]
1,O=[N+]([O-])c1sc(-c2cccnc2)nc1Cl,110 to 112
2,CCOC(=O)C(C(=O)OCC)(c1ccccc1)N1CCN(CCO)CC1,63 to 64
3,CCOC(=O)ON=C(N)c1cccc(Oc2ccc3c(c2)S(=O)(=O)N=C2CCCN23)c1,101 to 105
4,CCCN1CCC23c4cccc(O)c4OC2C2CCC3(C1)C(CSC)C2 (stereo not given),152 to 153
5,COc1cc(COc2cc(/C=C/C(=O)O)n(-c3ccccc3)n2)ccc1OCc1nc(-c2ccccc2)oc1C,194 to 195
6,COc1ccc(NC(=O)[C@H]2[C@H](c3ccc(S(N)(=O)=O)cc3)C23CCCC3)c(OC)n1 (relative stereo),112 to 115
7,CCCCCCOc1ccccc1C(=N)OCC,68 to 70
8,CN(C)C(=O)c1ccc(C(=O)CS(=O)(=O)C(c2ccc(Cl)cc2)c2ccc(Cl)cc2)s1,192 to 194
9,CC(=O)Nc1c(C(=O)c2ccccc2)[nH]c2cc(N)ccc12,219 to 221
10,COc1ccc(C(=O)Nc2ccccc2/C=C/c2ccnc(C)c2)cc1,183 to 184
11,O=C(O)CCCCN1C(=O)c2cccc([N+](=O)[O-])c2C1=O,158 to 160
12,C=C(CCCC(=O)N1CCC[C@@H](C(=O)OC(C)(C)C)N1)C(=O)O,86 to 88
13,Cc1cc(C(=O)N2Cc3cccn3Cc3ccccc32)ccc1-c1ccncc1,208 to 210
14,CC(=O)c1ccc(C#CCOC2CCC3C4CCC5CC(C)(O)CCC5(C)C4CCC23C)cc1 (stereo not given),52 to 55
15,COc1cccc(S(=O)c2cccc(N)c2C#N)c1 (stereo not given),110 to 114
16,CCOC(=O)N1CC1C(N)=O (stereo not given),125 to 128
17,CCCNC(=O)Nc1ccc(N2CCOCC2)cc1C(=O)NCC1CCN(C(c2ccccc2)c2ccccc2)CC1,215 to 217
18,O=C(NC1(C(=O)O)Cc2ccc(Br)cc2C1)c1cn2cc(-c3ccc(Cl)cc3)ccc2n1 (stereo not given),328
19,CCN(C(C)=O)c1cccc(-c2ccnc3c(C(=O)c4ccccc4)cnn23)c1,158 to 160
20,COc1ccc(S(=O)(=O)N(CC(N)=O)c2ccc(Cl)cc2C(C)c2ccccc2Cl)cc1OC (stereo not given),150
21,CC1(c2ccc(N)cc2)C(=O)c2c(Cl)cc(Cl)cc2N(Cc2ccccc2)C1=O (stereo not given),209 to 210

# Source: a melting point compilation (Tetko et al.; mined from patent text by program, amines drawn as free bases though some values may be those of a salt)
